Experimental data: patent US9433683B2, “Reversible pegylated drugs” (Yeda Research and Development Co., Ltd., priority 2003, dated 2016)
Values joined by “and” are separate entries in the source; they are usually repeats but may differ in a detail not shown here. Equal values may be shown once.

Assays:
[1] = molecular target: T1, hGH-receptor preparation extracted from rabbit liver plasma membranes (Oryctolagus cuniculus, UniProt P19941); experiment: 125I-hGH displacement from hGH-receptor preparation; assay type: binding
T1 construct: enriched hGH-receptor preparation extracted from rabbit liver plasma membranes; from tissue; host or cells: rabbit liver plasma membranes
T1 sequence (P19941 19-638): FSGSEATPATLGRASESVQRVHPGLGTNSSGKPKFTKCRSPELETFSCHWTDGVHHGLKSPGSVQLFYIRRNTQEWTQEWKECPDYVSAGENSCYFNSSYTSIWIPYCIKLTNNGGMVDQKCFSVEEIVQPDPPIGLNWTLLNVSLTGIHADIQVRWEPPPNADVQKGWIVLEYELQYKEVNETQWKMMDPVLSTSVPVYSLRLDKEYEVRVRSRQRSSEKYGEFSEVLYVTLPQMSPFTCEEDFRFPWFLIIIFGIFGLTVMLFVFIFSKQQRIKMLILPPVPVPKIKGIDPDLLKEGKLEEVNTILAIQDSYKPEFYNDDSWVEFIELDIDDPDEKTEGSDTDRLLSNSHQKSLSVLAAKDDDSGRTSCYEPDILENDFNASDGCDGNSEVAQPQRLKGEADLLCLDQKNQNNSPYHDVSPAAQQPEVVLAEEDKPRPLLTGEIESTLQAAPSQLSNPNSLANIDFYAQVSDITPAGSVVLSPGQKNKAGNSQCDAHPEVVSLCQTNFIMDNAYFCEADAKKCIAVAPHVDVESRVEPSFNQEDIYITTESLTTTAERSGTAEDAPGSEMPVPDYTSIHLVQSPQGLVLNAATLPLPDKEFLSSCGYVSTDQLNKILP
Procedure: PEG40000-FMS-hGH (1 mg/ml) was incubated in 0.1 M phosphate buffer, 0.6% BSA and −2 mM NaN3 at 37° C. Aliquots were withdrawn at the indicated time points, and analyzed for their potencies to displace ^125I-hGH from enriched hGH-receptor preparation extracted from rabbit liver plasma membranes. Native hGH displaces ^125I-hGH in this assay half maximally at a concentration of 0.3±0.03 nM. […] PEG40000FMS-hGH (1 mg protein) was incubated as described above. At the indicated time points, 0.1 ml aliquots withdrawn and subjected to analytical HPLC analysis.
The hGH displacement assay was performed as previously described (Tsushima et al., 1980).

[2] = Clark et al., 1996; cited from earlier work
rat adipocytes [3] = experiment: Lipogenesis ([U-14C]glucose incorporation into lipids) in rat adipocytes; assay type: cell-based
Procedure: (4A) Insulin (17.24 nmoles in 0.2 ml 0.01 M NaHCO3) reacted with increasing concentrations of PEG5000-Fmoc-OSu at a molar excess over the protein as indicated in the figure for 2 hours at 25° C. The number of free amino groups that remained unmodified were quantitated with TNBS.
PEG5000-Fmoc-insulin conjugates containing one and two moles of PEG5000-Fmoc/mole insulin were incubated at a concentration of 0.172 μM in 0.1 M NaHCO3-0.5% bovine serum albumin and 1 mM NaN3 at 37° C. At the indicated time points aliquots were analyzed (in several concentrations for each aliquot) for their lipogenic potencies in rat adipocytes.
Results are expressed as a percentage of maximal stimulation.
(ii) Rat adipocytes were prepared from fat pads of male Wistar rats (100-200 gr) by collagenase digestion as described (Rodbell, 1964). The fat pads were cut into small pieces with scissors and suspended in 3 ml of KRB buffer containing NaCl, 110 mM; NaHCO3, 25 mM; Kcl, 5 mM; KH2PO4, 1.2 mM; CaCl2, 1.3 mM; MgSO4, 1.3 mM; and 0.7% BSA (pH 7.4). […] Five ml of buffer was then added, and the cells were passed through a mesh screen. The cells were then allowed to stand for several minutes in a 15 ml plastic test tube at room temperature, floating, and the buffer underneath was removed. This procedure (suspension, floating, and removal of buffer underneath) was repeated three times.
(iii) Lipogenesis (incorporation of [U-^14C] glucose into the lipids of intact adipocytes). The incorporation of [U-^14C] glucose into adipose tissue in rat adipocytes was performed as described (Moody et al., 1974). Adipocyte suspensions (3×10^5 cells/ml) were divided into plastic vials (0.5 ml per vial) and incubated for 60 min at 37° C. under an atmosphere of carbogen with 0.2 mM [U-^14C]glucose, in either the absence or presence of insulin. Lipogenesis was terminated by adding toluene-based scintillation fluid (1.0 ml per vial) and the radioactivity in extracted lipids was counted.
Rat adipocytes were prepared from the fat pads of male Wistar rats (100-200 g) by collagenase digestion (Rodbel, 1964). Lipogenesis (during which [U^14-C] glucose was incorporated into the lipids) was performed using the procedure of Moody et al (Moody et al., 1974). Diabetes was induced by a single intravenous injection of freshly prepared streptozocin (STZ) solution (55 mg/kg body wt) as previously described (Meyerovitch et al., 1987). Rats were maintained at 24° C. under conditions of controlled lighting and were fed ad libitum. Blood samples for the analysis of blood glucose were taken from the tail veins and measured with a glucose analyzer (Beckman Instruments, Fullerton, Calif.) by the glucose oxidase method. Groups consisted of five Wistar rats weighing 170±5 g. Data are presented as means±SE.

CD1-mice = experiment: Glucose-lowering potency of insulin and PEG5000-Fmoc-insulin in mice (SC or IP); assay type: in vivo, mouse
Procedure: Mice received SC, either native insulin (Zn^2+-free, 1.72 nmole/mouse in 0.2 ml PBS buffer) or (PEG5000-Fmoc)1-insulin (17.2 nmole/mouse, in 0.2 ml PBS buffer). Blood glucose levels were determined at the indicated time points. Each point is the arithmetic mean±SEM of blood glucose of five mice.
Groups of mice received IP either insulin (Zn^2+-free, 0.345 nmol/mouse, in 0.2 ml PBS buffer) or (PEG5000-Fmoc)1-insulin (3.45 nmoles/mouse, in 0.2 ml PBS buffer). Blood glucose levels were determined at the indicated time points. Each point in the figure is the arithmetic mean±SEM of five mice.
(iv) Glucose-lowering potency of insulin and its derivatives was determined in mice following administration under the conditions specified in each experiment. […] Each group consisted of 4-5 mice. Data are presented as means±SEM.
Native insulin (Zn^2+ free, 1.72 nmol/mouse) or (PEG5000-Fmoc)1-insulin (17.2 nmoles/mouse) were administered subcutaneously to groups of mice (n=5 in each group), and the glucose lowering profiles were determined. Native insulin reduced blood glucose level maximally at 30 min.
In order to differentiate between these factors, the subcutaneous compartment was bypassed by administering native insulin (Zn^2+-free, 0.345 nmoles/mouse, in 0.2 ml PBS buffer) or (PEG5000-Fmoc)1-insulin (3.45 nmoles/mouse, in 0.2 ml PBS buffer) intraperitoneally. The glucose lowering capacities were then monitored. Blood glucose levels were determined at different time points.

C57BL/6J male mice = experiment: Food intake (re-feeding after 24 h starvation) in mice; assay type: in vivo, mouse
Procedure: Drinking water was provided at all times.
Results are average of four identical experiments.
Drinking water was provided at all times. […] A minimum interval of 1 h was introduced between injection and re-feeding to avoid a stress-dependent decrease in food intake. The amount of food consumed per group was determined at the end of the feeding period. Remaining chow was weighed after the 2 h re-feeding period and the cumulative food intake per 10 mice was calculated. Values of food intake in replicate experiments were normalized according to the saline controls. Results are expressed as food intake per 10 mice±SD from 2-5 replicate experiments.
(vi) Statistical analysis. The significance of differences in food consumption was determined by the Student's t-test, using the total weight of food consumed by each group of 10 mice as a single value. A saline-injected group of 10 mice was included in each experiment as a control. A two-tailed, paired t-test was performed between the control and treated groups.

[4] = Hydrolysis of conjugates / release of parent drug upon incubation at pH 8.5, 37° C. (HPLC or TNBS)
[5] = tested on: Escherichia coli (E. coli strain N-4156-W.T); experiment: Inhibition of E. coli replication (antibacterial potency of gentamicin and PEG-Fmoc-gentamicin); assay type: cell-based
[6] = human, in vivo; cited from earlier work
[7] = Pharmacokinetic profile of SC 125I-insulin and 125I-HSA in rats; details: 10 μg 125I-labeled protein
Procedure: Blood aliquots obtained from the tail vein at the indicated time points were spotted onto Whatman #3 paper and weighed immediately. Each paper was washed with 10% TCA and measured for its radioactive content. […] Each point in the figure represents the arithmetic mean of 5 rats±SE.
Rats were maintained at 24° C. under conditions of controlled lighting and were fed ad libitum. […] Data are presented as means±SE.
For comparison, we subcutaneously administered ^125I-insulin under similar experimental conditions.

rat adipocytes [8] = experiment: Lipogenesis ([U-14C]glucose incorporation into lipids) in rat adipocytes; assay type: cell-based; details: Example 34 assay, 2 h at 37° C.; HSA conjugates taken as 24±3 μg insulin per mg HSA
[9] = SC 5 nmol/mouse, 18 h prior to re-feeding

(PEG40-FMS)2-hGH: two PEG40-FMS moieties linked to hGH
native-receptor binding capacity following 50 hours of incubation ([1]; 37° C., normal rat serum or pH 8.5): 70-80%

(PEG5000)5 hGH: hGH with about five PEG5000 chains linked irreversibly (Clark et al., 1996)
biological potency of hGH [2]: less than 0.1%

(PEG5000-Fmoc)1-insulin: about one mol PEG-Fmoc per mol insulin
lipogenic activity, % of native potency (rat adipocytes [3]; after 2 hours at pH 8.5, 37° C.): 16% | lipogenic activity, % of native potency (rat adipocytes [3]; after 4 hours at pH 8.5, 37° C.): 24% | lipogenic activity, % of native potency (rat adipocytes [3]; after 10 hours at pH 8.5, 37° C.): 30% | lipogenic activity, % of native potency (rat adipocytes [3]; after 17 hours at pH 8.5, 37° C.): 36% | lipogenic activity, % of native potency (rat adipocytes [3]; after 80 hours at pH 8.5, 37° C.): 95% | biological (lipogenic) potency of the native hormone (rat adipocytes [3]; prior to hydrolysis / time 0): 7±1% | return to normoglycemia, slower than native hormone (CD1-mice; IP administration): 3.4 fold | time of maximal fall of circulating glucose (CD1-mice; IP, 3.45 nmoles/mouse): 1.0 h | time of return to normal glucose values after administration (CD1-mice; IP, 3.45 nmoles/mouse): 6 h | additional time maintained at the low glucose level (CD1-mice; SC, 17.2 nmoles/mouse): 4 h | time of maximal lowering of circulating glucose (CD1-mice; SC, 17.2 nmoles/mouse): 4 h | half time of return to normoglycemic values relative to native insulin (CD1-mice; single SC administration): 6.7 fold

(PEG5000-Fmoc)2-insulin: insulin conjugate containing two moles of PEG5000-Fmoc/mole insulin
lipogenic activity, % of native insulin potency (rat adipocytes [3]; after 30±2 hours at pH 8.5, 37° C.): 45±3% | lipogenic activity, % of native insulin potency (rat adipocytes [3]; after 80±4 hours at pH 8.5, 37° C.): 90% | lag period before regeneration of lipogenic potency (rat adipocytes [3]; incubation at pH 8.5, 37° C.): 10 ± 1 h and 10 h

Nα-Nε-diacetyl-PYY3-36: PYY3-36 acetylated at its two amino groups [reference compound]
food consumed in 2 h re-feeding (C57BL/6J male mice; 20 μg per mouse): 10.54±0.08 g chow per 10 mice

PEG40-FMS-PYY3-36: 1:1 conjugate of PEG40-SH and MAL-FMS-PYY3-36
food consumed in 2 h re-feeding (C57BL/6J male mice; [9]): 4.7±0.14 g chow per 10 mice | reduction in food intake compared with saline (C57BL/6J male mice; [9]): 52% | reduction in food intake (C57BL/6J male mice; SC 5 nmol/mouse, 24 h prior to re-feeding): 27% | half-life of satiety effect, longer than unmodified PYY3-36 (C57BL/6J male mice; mouse, in vivo): 8 fold | cumulative amount of free PYY3-36, % of input conjugate ([4]; after 40 h): 79%

PEG40-FMS-hGH
k (h^−1), slope of ln [PEG-FMS conjugate] against time [4]: 0.059 h^−1 | receptor binding affinity ([1]; in vitro, prior to incubation): no receptor binding affinity

PEG40-PYY3-36: Irreversibly pegylated PYY3-36, one PEG40 residue per PYY3-36 [reference compound]
biological activity of irreversibly pegylated PYY3-36 on food intake (C57BL/6J male mice; SC 5 nmol/mouse, 1 h prior to re-feeding): No significant reduction in food intake

PEG5000-Fmoc-insulin: insulin preparations with 0.3 to 2.2 mol PEG5000-Fmoc incorporated per mol insulin
biological (lipogenic) potency relative to native insulin (rat adipocytes [3]; 0.3 mol PEG5000-Fmoc/mol insulin incorporated): 87±4% | biological (lipogenic) potency relative to native insulin (rat adipocytes [3]; 0.6 mol PEG5000-Fmoc/mol insulin incorporated): 60±3% | biological (lipogenic) potency relative to native insulin (rat adipocytes [3]; 1.1 mol PEG5000-Fmoc/mol insulin incorporated): 8±1% | biological (lipogenic) potency relative to native insulin (rat adipocytes [3]; 1.5 mol PEG5000-Fmoc/mol insulin incorporated): 4±0.3% | biological (lipogenic) potency relative to native insulin (rat adipocytes [3]; 2.2 mol PEG5000-Fmoc/mol insulin incorporated): less than 1%

gentamicin
IC50 [5]: 220 ± 20 nM | concentration inhibiting E. coli replication half-maximally [5]: 0.1 µg/mL

hGH: Recombinant hGH
t1/2 of clearance from the circulatory system [6]: 0.333 to 0.5 h

insulin: Human (Zn2+-free) insulin [reference compound]
t1/2 of decline in blood [7]: 9.0 ± 1.0 h | time of peak value in blood after administration [7]: 1 ± 0.1 h | stimulation of lipogenesis above basal levels (rat adipocytes [3]): 4-6 times above basal and 4-5 times above basal | ED50 for stimulation of lipogenesis (rat adipocytes [3]; rat adipocytes, Example 28 assay): 0.2 ± 0.02 ng/mL and 0.15 ± 0.03 ng/mL | ED50 in lipogenic assay (rat adipocytes [8]): 0.3 ± 0.01 ng/mL and 0.3 ng/mL | time of maximal fall of circulating glucose (CD1-mice; IP, 0.345 nmoles/mouse): 0.25 h | time of maximal reduction of blood glucose level (CD1-mice; SC, 1.72 nmol/mouse): 30 min
